Patent US20250375464A1, “FORMULATIONS FOR MODULATING MYC EXPRESSION” (FLAGSHIP PIONEERING INNOVATIONS V, INC., priority 2022, published 2025)

Key:
Hep 3B tumors = experiment: Hep 3B subcutaneous xenograft in nude mice, tumor volume
Procedure: In this example, 0.6 mg/ml LNP (MC3) formulated effector (dCas9-MQ1/GD-17) was delivered to tumor sites by intratumoral injection on day 1 and day 7 (20 μl/mice) in the test group animals. The control group mice were injected at the tumor site either with PBS or with 0.6 mg/ml LNP (MC3) control effector dCas9/GD-SafeHarbor (20 μl/mice). Each control and test group consisted of 6 animals having SubQ Hep3B Xenografts (250 mm^3). Changes in tumor volume for each group was measured every 3 days for 15 days. At the end of 15 days, the changes in mean tumor volume were measured using Paired T-test and was plotted.
(§1) Hep 3B tumor cells were implanted into the left flank of thirty female nude mice to induce tumor. Changes in tumor volume was measured and the treatment initiated when mean tumor volume reached approximately 100-150 mm^3. Mice were divided into treatment and control groups so that mean tumor volume in each group were approximately equal. Control groups were injected either with PBS or with MYCi975, a small molecule comparator. The mice in each group were injected intratumorally with PBS (every 5 days for 3 doses then switched to IV for 2 doses), intravenously with ZF9-MQ1 (every 5 days at 3 mg/kg) or intraperitoneally with MYCi975 (once daily for 5 days/week). All animals were weighed daily and assessed visually. Changes in tumor volume for each group were measured 3 times per week. Over the course of 22 days, the changes in body weight from baseline and the mean tumor volume were measured using Paired T-test and was plotted (FIG. 14A-B).
Hep 3B tumor cells were implanted into the left flank of seventy-two female nude mice to induce tumor. Changes in tumor volume was measured and the treatment initiated when mean tumor volume reached approximately 200 mm^3. Mice were divided into nine treatment groups (8 mice each) so that mean tumor volume in each group was approximately equal. The mice in each group were injected intravenously with PBS (every 5 days for 3 doses then every 3 days for 3 doses), ZF9-MQ1 at 1 mg/kg and 3 mg/kg (every 5 days for 3 doses then every 3 days for 3 doses), co-formulated ZF9-MQ1+ZF3-KRAB at 1 mg/kg and 3 mg/kg (every 5 days for 3 doses then every 3 days for 3 doses), negative control mRNA at 1 mg/kg and 3 mg/kg (every 5 days for 3 doses then every 3 days for 3 doses), intraperitoneal with MYCi975 at 100 mg/kg (once daily for 5 days per week) or intraperitoneal with cisplatin at 1 mg/kg (once every 15 days). All animals were weighed daily and assessed visually. Changes in tumor volume were measured 3 times per week.
Disease was induced in female nude mice by the implantation of Hep 3B tumor cells into the left flank. […] All animals were weighed daily and assessed visually. Tumors sizes were measured 3 times per week. […]

[1] = Overall animal (body) weight in the tumor studies (FIGS. 14-16, 20); format: in vivo, mice; details: doses as in the respective tumor study
Hep3B-luc tumors = experiment: Orthotopic Hep3B-luc model, tumor bioluminescence; format: in vivo, mice (Fox Chase CB17 SCID; nude); details: nude mice
Procedure: Tumor progression was measured by luminescence. […] It is unclear whether this is related to treatment. […] Statistically significant differences were observed between treatment groups.
Sorafenib was given orally (PO) daily (QD) as a standard of care control. Tumor progression was measured by luminescence. No animal deaths were noted.

HEPG2 tumors = experiment: HepG2 subcutaneous xenograft in nude mice; format: in vivo; set-up: dose or concentration left out as unconfirmed
[2] = Body weight and tolerability of tumor bearing mice
Procedure: as §1
All animals were weighed daily and assessed visually.

SKHEP1 tumors = experiment: SKHEP1 subcutaneous xenograft in nude mice; format: in vivo; details: 50 mg/kg orally daily
Procedure: Animals were dosed every 5 days.
Sorafenib was given daily at 50 mg/kg.

Row | Compound | increase in tumor volume (Hep 3B tumors; Example 44, 25 mg/kg alone, 12 days) | overall animal (body) weight, result in words [1] | tumor luminescence relative to PBS controls (Hep3B-luc tumors; Example 45, 50 mg/kg orally daily) | tumor luminescence relative to PBS controls (Hep3B-luc tumors; Example 46, 50 mg/kg PO QD) | tumor growth (HEPG2 tumors) | weight gain ([2]; SK-HEP-1 subcutaneous, 50 mg/kg orally daily) | body weight ([2]; orthotopic Hep3B-luc, SCID mice, ZF9-MQ1+ZF3-KRAB 1.5-6 mg/kg every 5 days, sorafenib 50 mg/kg daily orally) | tumor growth (SKHEP1 tumors) | tumor growth relative to PBS controls (Hep 3B tumors; 50 mg/kg orally every day (Example 35)) | tumor growth relative to PBS controls (Hep 3B tumors; Example 40, 50 mg/kg orally daily) | tumor growth relative to PBS control (Hep 3B tumors; Example 43, 25 mg/kg QD alone, 16 days)
1 | Cc1sc2c(c1C)C(c1ccc(Cl)cc1)=N[C@@H](CC(=O)OC(C)(C)C)c1nnc(C)n1-2 [JQ1] | did not significantly inhibit |  |  |  |  |  |  |  |  |  | 
2 | CNC(=O)c1cc(Oc2ccc(NC(=O)Nc3ccc(Cl)c(C(F)(F)F)c3)cc2)ccn1 [sorafenib] |  | initial drop in body weight with a later gain in overall body weight | statistically significant reduction in tumor luminescence | statistically significant reduction in tumor luminescence | statistically significant reduction in tumor growth | Statistically significant reductions in weight gain | initial drop in body weight | statistically significant reduction in tumor growth | statistically significant reduction in tumor growth | statistically significant reduction in tumor growth | did not significantly reduce tumor growth
